assay: recombinant UMI read abundance after kanamycin selection (control-corrected) (log10(CPM+1)); higher = more efficient recombination; extreme values may be limits of the assay; sequences stand for … in AGTGCAGAGAAAATCGGCCAGTTTTCTCTGCCTGCAGTCCGCATGCCGTGGGACCCCTTGGGTTCTAACCTGTTGCCTAGATTTATGCAGCGGACTGCCTTTCTCCCAAAGTGATAAACCGG…AGGTTGGTTTCACT; site = the 11-nt donor
Method in brief: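 Values are reported as log10(CPM+1), obtained by converting sequencing counts to CPM, averaging replicates and scaling by control-derived factors. The counts came from recombinant UMIs amplified by PCR across the donor–target junction. These UMIs came from a pooled Escherichia coli screen of donor and donor-binding-loop pairs for the IS621 bridge recombinase, plated with IPTG (0.07 mM) plus kanamycin or left unselected, in two replicates each.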
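Also: IS621 bridge recombinase in Escherichia coli cells against a fixed T5 target plasmid.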

Question: For “AGAAAGGCATGGACCGGTTTTCCCGGTAATCCGTATTTGCG (site AGAAAGGCTAG)”, which “recombinant UMI read abundance (log10)” value is on record?
Answer: 1.07

Question: For “AGAAAGGCATGGACCGGTTTTCCCGGTAATCCGTATTTGCG (site AGAAAGGCTCG)”, which “recombinant UMI read abundance (log10)” value is on record?
Answer: 1.64

Question: Which “recombinant UMI read abundance (log10)” value does the source give for “AGAAAGGCATGGACCGGTTTTCCCGGTAATCCGTATTTGCG (site AGAAAGGCTGG)” here?
Answer: 0

Question: With “AGAAAGGCATGGACCGGTTTTCCCGGTAATCCGTATTTGCG (site AGAAAGGCTTG)” as the sequence, how does the “recombinant UMI read abundance (log10)” value read?
Answer: 1.15

Question: For “AGAAAGGCATGGACCGGTTTTCCCGGTAATCCGTATTTGCT (site AAAAAGGCTAG)”, which “recombinant UMI read abundance (log10)” value is on record?
Answer: 0

Question: Which “recombinant UMI read abundance (log10)” value does the source give for “AGAAAGGCATGGACCGGTTTTCCCGGTAATCCGTATTTGCT (site ACAAAGGCTAG)” here?
Answer: 0.00966

Question: Which “recombinant UMI read abundance (log10)” value does the source give for “AGAAAGGCATGGACCGGTTTTCCCGGTAATCCGTATTTGCT (site AGAAAAGCTAG)” here?
Answer: 0

Question: For “AGAAAGGCATGGACCGGTTTTCCCGGTAATCCGTATTTGCT (site AGAAACGCTAG)”, which “recombinant UMI read abundance (log10)” value is on record?
Answer: 0

Question: With “AGAAAGGCATGGACCGGTTTTCCCGGTAATCCGTATTTGCT (site AGAAAGACTAG)” as the sequence, how does the “recombinant UMI read abundance (log10)” value read?
Answer: 0

Question: With “AGAAAGGCATGGACCGGTTTTCCCGGTAATCCGTATTTGCT (site AGAAAGCCTAG)” as the sequence, how does the “recombinant UMI read abundance (log10)” value read?
Answer: 0

Question: Which “recombinant UMI read abundance (log10)” value does the source give for “AGAAAGGCATGGACCGGTTTTCCCGGTAATCCGTATTTGCT (site AGAAAGGCTAA)” here?
Answer: 0.446

Question: For “AGAAAGGCATGGACCGGTTTTCCCGGTAATCCGTATTTGCT (site AGAAAGGCTAC)”, which “recombinant UMI read abundance (log10)” value is on record?
Answer: 0.019

Question: Which “recombinant UMI read abundance (log10)” value does the source give for “AGAAAGGCATGGACCGGTTTTCCCGGTAATCCGTATTTGCT (site AGAAAGGCTAG)” here?
Answer: 2.58

Question: For “AGAAAGGCATGGACCGGTTTTCCCGGTAATCCGTATTTGCT (site AGAAAGGCTAT)”, which “recombinant UMI read abundance (log10)” value is on record?
Answer: 1.27

Question: With “AGAAAGGCATGGACCGGTTTTCCCGGTAATCCGTATTTGCT (site AGAAAGGCTCG)” as the sequence, how does the “recombinant UMI read abundance (log10)” value read?
Answer: 1.65

Question: Which “recombinant UMI read abundance (log10)” value does the source give for “AGAAAGGCATGGACCGGTTTTCCCGGTAATCCGTATTTGCT (site AGAAAGGCTGG)” here?
Answer: 0.262

Question: For “AGAAAGGCATGGACCGGTTTTCCCGGTAATCCGTATTTGCT (site AGAAAGGCTTG)”, which “recombinant UMI read abundance (log10)” value is on record?
Answer: 0

Question: With “AGAAAGGCATGGACCGGTTTTCCCGGTAATCCGTATTTGCT (site AGAAAGTCTAG)” as the sequence, how does the “recombinant UMI read abundance (log10)” value read?
Answer: 0

Question: With “AGAAAGGCATGGACCGGTTTTCCCGGTAATCCGTATTTGCT (site AGAAATGCTAG)” as the sequence, how does the “recombinant UMI read abundance (log10)” value read?
Answer: 0

Question: For “AGAAAGGCATGGACCGGTTTTCCCGGTAATCCGTATTTGCT (site AGAACGGCTAG)”, which “recombinant UMI read abundance (log10)” value is on record?
Answer: 0.235

Question: With “AGAAAGGCATGGACCGGTTTTCCCGGTAATCCGTATTTGCT (site AGAAGGGCTAG)” as the sequence, how does the “recombinant UMI read abundance (log10)” value read?
Answer: 0.224

Question: For “AGAAAGGCATGGACCGGTTTTCCCGGTAATCCGTATTTGCT (site AGAATGGCTAG)”, which “recombinant UMI read abundance (log10)” value is on record?
Answer: 0

Question: For “AGAAAGGCATGGACCGGTTTTCCCGGTAATCCGTATTTGCT (site AGACAGGCTAG)”, which “recombinant UMI read abundance (log10)” value is on record?
Answer: 0

Question: With “AGAAAGGCATGGACCGGTTTTCCCGGTAATCCGTATTTGCT (site AGAGAGGCTAG)” as the sequence, how does the “recombinant UMI read abundance (log10)” value read?
Answer: 0.846

Question: For “AGAAAGGCATGGACCGGTTTTCCCGGTAATCCGTATTTGCT (site AGATAGGCTAG)”, which “recombinant UMI read abundance (log10)” value is on record?
Answer: 1.23

Question: Which “recombinant UMI read abundance (log10)” value does the source give for “AGAAAGGCATGGACCGGTTTTCCCGGTAATCCGTATTTGCT (site AGCAAGGCTAG)” here?
Answer: 0

Question: For “AGAAAGGCATGGACCGGTTTTCCCGGTAATCCGTATTTGCT (site AGGAAGGCTAG)”, which “recombinant UMI read abundance (log10)” value is on record?
Answer: 1.73

Question: With “AGAAAGGCATGGACCGGTTTTCCCGGTAATCCGTATTTGCT (site AGTAAGGCTAG)” as the sequence, how does the “recombinant UMI read abundance (log10)” value read?
Answer: 1.3

Question: Which “recombinant UMI read abundance (log10)” value does the source give for “AGAAAGGCATGGACCGGTTTTCCCGGTAATCCGTATTTGCT (site ATAAAGGCTAG)” here?
Answer: 0

Question: Which “recombinant UMI read abundance (log10)” value does the source give for “AGAAAGGCATGGACCGGTTTTCCCGGTAATCCGTATTTGCT (site CGAAAGGCTAG)” here?
Answer: 0.48

Question: With “AGAAAGGCATGGACCGGTTTTCCCGGTAATCCGTATTTGCT (site GGAAAGGCTAG)” as the sequence, how does the “recombinant UMI read abundance (log10)” value read?
Answer: 0.0101

Question: Which “recombinant UMI read abundance (log10)” value does the source give for “AGAAAGGCATGGACCGGTTTTCCCGGTAATCCGTATTTGCT (site TGAAAGGCTAG)” here?
Answer: 0.932

Question: Which “recombinant UMI read abundance (log10)” value does the source give for “AGAAAGTCATGGACCGGTTTTCCCGGTAATCCGTATTTGCT (site AGAAAGACTAG)” here?
Answer: 0

Question: Which “recombinant UMI read abundance (log10)” value does the source give for “AGAAAGTCATGGACCGGTTTTCCCGGTAATCCGTATTTGCT (site AGAAAGCCTAG)” here?
Answer: 0

Question: With “AGAAAGTCATGGACCGGTTTTCCCGGTAATCCGTATTTGCT (site AGAAAGGCTAG)” as the sequence, how does the “recombinant UMI read abundance (log10)” value read?
Answer: 0

Question: With “AGAAAGTCATGGACCGGTTTTCCCGGTAATCCGTATTTGCT (site AGAAAGTCTAG)” as the sequence, how does the “recombinant UMI read abundance (log10)” value read?
Answer: 2.63

Question: Which “recombinant UMI read abundance (log10)” value does the source give for “AGAACAACATGGACCGGTTTTCCCGGTAATCCGTATTTGTG (site AGAACAACTCA)” here?
Answer: 1.29

Source: the supplement of paper PMC11208160
